Data as given in US20220011296A1, “DETERMINING TREATMENT RESPONSE IN SINGLE CELLS” (Dana-Farber Cancer Institute, Inc., priority 2018, published 2022).
“Also recorded” adds a separate entry of the source.

Legend:
Format in all cases: cell-based, human
[1] = test system: metastatic non-small-cell lung cancer cells (BT1443); assay: sSMR buoyant mass and MAR measurement, lung metastasis (BT1443); settings: carboplatin 100 μM, 72 h
Method: Patient-derived cells from six different types of brain tissues were assessed for drug sensitivity in the sSMR: non-tumor brain tissue from epilepsy surgery, glioblastoma, recurrent glioblastoma, breast metastasis, lung metastasis, and primary CNS lymphoma. Resected samples obtained with patient consent to research (Brigham and Women's Hospital, DF/HCC IRB-approved consent protocol 10-417) were enzymatically and physically dissociated using the Brain Tumor Dissociation Kit P (130-095-942, Miltenyi Biotec) and gentleMACS Dissociator (130-093-235, Miltenyi Biotec). […]
Primary Sample Handling. […] Measurements for sample viability were determined (Table 2, below).
Measurements were obtained from […] types of primary patient sample types, including: non-tumor brain tissue resected for a non-tumor condition (FIGS. 5A-5B, Table 6) (n=1); primary glioblastoma (FIGS. 5C-5D, Table 7) and recurrent glioblastoma (FIGS. 5E-5F, Table 8) (n=2); metastatic breast adenocarcinoma (FIGS. 5G-5H, Table 9) (n=1); metastatic non-small-cell lung cancer (FIGS. 5I-5J, Table 10) (n=1); and primary central nervous system (CNS) lymphoma (FIGS. 5K-5L, Table 11) (n=1). […] Overall, mass and MAR were measured for 1092 cells with an average of 84 cells measured per condition over 13 conditions tested (FIGS. 1B-1C). […]

Lung Met cells = assay: Sample viability (Live/Dead), lung metastasis; settings: 100 μM Carbo, 3 days; vehicle 80%
Method: (§1) Primary Sample Handling. The six primary samples underwent the same protocol with regards to disassociation, recovery, and drugging; however, the exact timeline of each tissue varied slightly based on the amount of tissue and drug used (Table 1, below). After at least [culture time] in culture (with the exception of CNS lymphoma which was cultured for 24 hours), persistent red blood cells were removed with RBC lysis buffer (00-433-57, Thermo Fisher Scientific). The remaining cells were then dissociated with Accutase (A6964, Sigma-Aldrich) and further purified via demyelination (130-096-733, Miltenyi Biotec) with MS separation columns (130-042-201, Miltenyi Biotec), or debris removal (130-109-398, Miltenyi Biotec). The purified cells were plated in 6 or 24 well plates and allowed to recover in the well plate for [recovery time] before addition of the drug. After [drug duration] days, the samples were prepared for sSMR for drug response measurements by dissociation into a single-cell suspension using Accutase and gentle pipetting. Cells were resuspended at a concentration of 100,000 cells/mL in Neurocult NS-A (as prepared above) with the same concentration of drug or DMSO as their respective culture. Measurements for sample viability were determined (Table 2, below).

Breast Met cells = assay: Sample viability (Live/Dead), breast metastasis; settings: 3 days, vehicle 35%
Method: as §1

Normal brain cells = assay: Sample viability (Live/Dead), normal brain; settings: 250 μM TMZ, 3 days; vehicle 35%
Method: as §1

Glioblastoma cells = assay: Sample viability (Live/Dead), glioblastoma; settings: 250 μM TMZ, 8 days; vehicle 73%
Method: as §1

[2] = test system: glioblastoma multiforme (GBM) patient-derived cell lines (PDCLs); assay: Single cell mass / MAR assay in patient-derived cell lines; settings: TMZ compared with DMSO, heterogeneous cohort of PDCLs, FIG. 7A
Method: A single cell protocol for monitoring the mass accumulation rate (MAR) in response to chemotherapy (FIGS. 6A-6F). After tumor resection, the tissue is dissociated into single cells (FIG. 6A). The single cells from the dissociated tumor is measured within a week of resection using the mass/MAR of the single cells in response to chemotherapeutic agents (FIG. 6C). In addition to acute sensitivity testing, dissociated tumor cells from patient samples can also be grown long-term into robust cell lines (e.g., patient-derived cell lines, PDCLs), where high throughput experiments can be performed and analyzed relative to a more complete genomic background of the tissue (FIG. 6D). Because this assay is high throughput, the MAR can be measured with more conditions relative to acute patient samples. These PDCLs can be implanted in vivo to allow MAR measurements to be taken ex vivo from treated animals (e.g., mice). Metabolic readouts (e.g., CellTiter-Glo, CTG) and spheroid area analysis (e.g., IncuCyte) were conducted in parallel to the novel single cell MAR assays described herein (FIG. 6E).
Single cell MAR experiments were conducted in both PDCLs and acute patient models (FIGS. 7A-7D). […] The single cell MAR assay detected changes within 24 hours after treatment with a chemotherapeutic (TMZ) compared with DMSO (FIG. 7A).

CNS Lymphoma cells = assay: Sample viability (Live/Dead), CNS lymphoma; settings: 10 nM Ibrutinib, 2 days; vehicle 74%
Method: as §1

[3] = test system: Recurrent Glioblastoma cells; assay: Sample viability (Live/Dead), recurrent glioblastoma; settings: 1 μM Abema, 3 days; vehicle 67%
Method: as §1

With `N.N.O=C([O-])C1(C(=O)[O-])CCC1.[Pt+2]` [Carboplatin] the “Mass-normalized MAR vs vehicle (in words)” value [1] was “significantly reduced; also recorded: Statistically significant reductions” and the “Drug 1 Viability (Live/Dead)” value (Lung Met cells) was 74%.

For `CO[C@H]1C[C@@H]2CC[C@@H](C)[C@@](O)(O2)C(=O)C(=O)N2CCCC[C@H]2C(=O)O[C@H]([C@H](C)C[C@@H]2CC[C@@H](OCCO)[C@H](OC)C2)CC(=O)[C@H](C)/C=C(\C)[C@@H](O)[C@@H](OC)C(=O)[C@H](C)C[C@H](C)/C=C/C=C/C=C/1C` [RAD001, everolimus], the “Drug 1 Viability (Live/Dead)” value (Breast Met cells; 1 nM RAD) was 32%.

With `Cn1nnc2c(C(N)=O)ncn2c1=O` [TMZ, Temozolomide] the “Drug 1 Viability (Live/Dead)” value (Normal brain cells) was 30%, the “Drug 1 Viability (Live/Dead)” value (Glioblastoma cells) was 69% and the “time after treatment at which single cell MAR changes were detected” value [2] was at most 24 h.

With `C=CC(=O)N1CCC[C@@H](n2nc(-c3ccc(Oc4ccccc4)cc3)c3c(N)ncnc32)C1` [Ibrutinib] the “Drug 1 Viability (Live/Dead)” value (CNS Lymphoma cells) was 65%.

For `CCN1CCN(Cc2ccc(Nc3ncc(F)c(-c4cc(F)c5nc(C)n(C(C)C)c5c4)n3)nc2)CC1` [Abemaciclib], the “Drug 1 Viability (Live/Dead)” value [3] was 59% and the “Drug 2 Viability (Live/Dead)” value (Breast Met cells; 100 nM Abema) was 35%.
